Test results taken from patent publication US20240165231A1, “CAR-T DELIVERY OF SYNTHETIC PEPTIDE THERAPEUTICS” (THE TRUSTEES OF THE UNIVERSITY OF PENNSYLVANIA, priority 2021, published 2024).
Entries after “also recorded” stand apart in the source; their conditions may differ.

Legend:
[1] = system: TSA breast cancer cells; experiment: PD-L1 as readout of DNA damage response after liposomal PARPi mimetic peptides; format: cell-based; conditions: peptides in liposomes, 48 hours, flow cytometry
Protocol: PARP inhibitor peptides were computationally designed using methods as described in Example 2. Resulting PARP inhibitor (PARPi) mimetic peptides were encapsulated in liposomes and transfected into TSA breast cancer cells in vitro. 48 hours later, PD-L1 was assessed by flow cytometry as a readout of a DNA damage response. […] The PARP inhibitor olaparib was used as a positive control. […] In embodiments, the PARPi mimetic peptides may be introduced into a CAR construct for delivery to the tumor microenvironment via an engineered CAR-T cell.

[2] = system: B16 cells; experiment: Cell death after liposomal SMACm6 with or without TNF; format: cell-based
Protocol: SMAC peptides were generated using a rational design strategy. Peptides with the best binding and potency (as measured by induction of cell death) in a dose response assay were selected for testing. SMAC mimetic peptide compositions were encapsulated in liposomes and transfected into B16 or KP (lung adenocarcinoma) cells in vitro at various concentrations in the presence of 20 ng/mL of TNF. 24 hours later, cell death was assessed by flow cytometry. Peptide 6 (SMACm6; SEQ ID NO: 8) was selected for further analysis based on dose response in multiple cell lines.
The SMACm6 mimetic peptides were encapsulated in liposomes and transfected into B16 or KP cells in vitro at various concentrations with or without 20 ng/mL TNF.

[3] = system: STING; experiment: BMDC stimulation with liposome-encapsulated STING peptides, CD86 as surrogate for STING activity; format: cell-based, mouse; conditions: peptides in liposomes, 48 hours, flow cytometry
Protocol: Six cGAMP mimetic peptides (also referred to herein as STING peptides) were selected to test for activity. […] BDMCs were prepared by harvesting bone marrow from mouse hindlimbs and culturing in media (RPMI+10% FBS in 30 ng/mL GM-CSF) for 4 days. BMDCs were then stimulated with potential STING agonist peptides encapsulated in liposomes (Lipofectamine 2000) and returned to culture with GM-CSF for 48 hours. BMDCs were then evaluated for expression of CD86 by flow cytometry as a surrogate for STING activity. A schematic of the study design is provided in the left panel of FIG. 15.

[4] = system: STING; experiment: ST2-stimulated, Ova-loaded BMDCs (WT or STING KO) co-cultured with OT-I T cells; format: cell-based, mouse; conditions: for OT-I T cell Granzyme B / OT-I T cell IFNγ / OT-I T cell Ki67: 48 hours
Protocol: Activity of the STING agonist peptide ST2 was further characterized. BMDCs from wild type (WT) or STING knock-out (KO) mice were prepared as described above. Following stimulation with ST2, cells were loaded with Ova (SIINFEKL) peptide and then extensively washed to remove residual peptide. OT-I T cells specific for the Ova peptide were then added to BMDC cultures to assess DC activity and ability to stimulate CD8 T cell responses. OT-I T cell expression of Granzyme B (an indicator of cell killing activity), Ki67 (an indicator of cell proliferation), and IFNγ were assessed by flow cytometry 48 hours later.

| Substance | PD-L1 expression [1] | CD86 expression in BMDCs [3] | also measured |
| --- | --- | --- | --- |
| APLPP [Pep1] | increased PD-L1 expression | – | – |
| AVPIGGGGGGGGGGGGGGGIPVA [SMACm6] | – | – | relative cell death ([2]; absence of TNF): no cell death was observed; relative cell death ([2]; presence of 20 ng/mL TNF, increasing concentrations): increasing relative cell death; TNF dependence of cell death induction ([2]; presence or absence of TNF): dependent on TNF signaling |
| TFEYSG [ST3] | – | increased CD86 expression in BMDCs at statistically significant levels over negative control | – |
| LFIKP [ST5] | – | increased CD86 expression in BMDCs at statistically significant levels over negative control | – |
| MFEYG [ST4] | – | increased CD86 expression in BMDCs at statistically significant levels over negative control | – |
| CAPLPPC [Pep1C] | increased PD-L1 expression | – | – |
| LFILSG [ST2] | – | increased CD86 expression in BMDCs at statistically significant levels over negative control; also recorded: highest CD86 expression of the peptides tested | OT-I T cell Granzyme B ([4]; STING KO BMDCs): not significantly increased over liposome-only controls; OT-I T cell IFNγ ([4]; STING KO BMDCs): not significantly increased over liposome-only controls; OT-I T cell Ki67 ([4]; STING KO BMDCs): not significantly increased over liposome-only controls; OT-I T cell Granzyme B ([4]; WT BMDCs): significantly increased; OT-I T cell IFNγ ([4]; WT BMDCs): significantly increased; OT-I T cell Ki67 ([4]; WT BMDCs): significantly increased; STING dependence of T cell activation ([4]; WT versus STING KO): requires the STING pathway; also recorded: STING dependent |
| VPHPP [Pep3] | increased PD-L1 expression | – | – |
| APLGG [Pep2] | increased PD-L1 expression | – | – |
| IFEFPG [ST1] | – | increased CD86 expression in BMDCs at statistically significant levels over negative control | – |
| CIFEFPGC [ST1C] | – | increased CD86 expression in BMDCs at statistically significant levels over negative control | – |
